Assay results taken from patent US7087766B2, “Reagents for the quantitation of active oxygen” (Daiichi Pure Chemicals Co., Ltd., priority 2000, dated 2006).
“Also recorded” adds a separate entry of the source.

Columns and labels:
[1] = Reactivity with hydroxyl radical (Fenton system: hydrogen peroxide and ferrous perchlorate), fluorescence intensity; settings: for changes in fluorescence intensity between before and after treatment, Hydroxyl radical: 10 μM probe, 100 mM sodium phosphate buffer pH 7.4, Iron(II) perchlorate (100 μM) and hydrogen peroxide (1 mM), 30 minutes, ex 490 nm/em 510 nm; for reactivity to hydroxyl radical (in words): condition a of Table 1
Description: (§1) The excitation spectrum and the fluorescence spectrum of the 10 μM ss-3F solution were measured using a fluorophotometer F4500 (manufactured by Hitachi, Ltd.). Slit width was 2.5 nm for both the excitation spectrum and the fluorescence spectrum, and the photomultiplier voltage was 950 V. Measurement was carried out at the excitation wavelength of 490 nm and the fluorescence wavelength of 510 nm unless otherwise specified.
Further, to investigate the reaction between ss-3F and hydroxyl radical, hydrogen peroxide was added to the 10 μM ss-3F solution to a final concentration of 1 mM, and then the mixture was added with ferrous perchlorate to a final concentration of 100 μM for each addition (5 times in total) to measure changes in fluorescence intensity with time (Fenton system).
(§2) The solutions described below were analyzed by HPLC. The absorbance at 460 nm was measured using XTerra™RP18 5 μm (4.6×250 mm) as a column and an aqueous solution of acetonitrile/0.1M NaHCO3=1/1 as an eluate with an elution rate of 1 ml/min. • (A) the 10 μM ss-3F solution • (B) a reaction solution prepared by adding EP-1 to the 10 μM ss-3F solution so as to give a final concentration of 5 mM and reacting at 37° C. for 8 hours • (C) a solution prepared by adding hydrogen peroxide to the 10 μM ss-3F solution so as to give a final concentration of 1 mM, and further adding ferrous perchlorate so as to give a final concentration of 500 μM, and then allowing to stand at room temperature for about 3 hours • (D) a 1 μM fluorescein solution
(§3) The compounds of the present invention, ss-1F, and ss-3F were tested. DCFH (2′,7′-dichlorodihydrofluorescein) was used as a control which was produced by hydrolyzing DCFH-DA (2′,7′-dichlorodihydrofluorescein diacetate; Molecular Probes, D-399) as a commercially available agent for detecting reactive oxygen species. DCFH-DA was hydrolyzed in accordance with the method by Hempel et al. (Stephen L. Hempel et al., Free Radical Biology & Medicine, 27, 146–159, 1999) under an alkali condition to obtain DCFH. […] The 10 μM DCFH solution was used for the test immediately after the preparation. […] Each of ss-1F, ss-3F, and DCFH was treated under conditions “a” to “f” for 30 minutes (2 hours and 30 minutes only for “f”) and changes in fluorescence intensity between before and after treatment were measured. The fluorescence intensity was measured under the same conditions as those in Example 4.

[2] = Reactivity with singlet oxygen (EP-1 naphthalene endoperoxide system), fluorescence intensity; settings: for changes in fluorescence intensity between before and after treatment, Singlet oxygen: 10 μM probe, 100 mM sodium phosphate buffer pH 7.4, EP-1 (100 μM), 30 minutes
Description: as §1
Subsequently, in order to investigate the reaction between ss-3F and singlet oxygen, a solution of EP-1 (a singlet oxygen generation system, i.e., the naphthalene endoperoxide compound; Saito, I, .et al., J. Am. Chem. Soc., 107, pp. 6329–6334, 1985) in dimethylformamide (DMF) was added to the 10 μM ss-3F solution to final concentrations of 1 mM, 2 mM, and 5 mM, and changes in fluorescence intensity with time was measured (EP-1 system). The temperature of the solution at this time was at 37° C. The excitation spectrum and the fluorescence spectrum of the solution after the completion of the reaction were measured under the same conditions as described above. […] Also in FIG. 3, generation of fluorescence was observed, and it was verified that ss-3F generated fluorescence upon reaction with singlet oxygen.
as §2
(§4) A fluorescence spectrum of ss-3 obtained in Example 1 was measured under the same conditions as those in 1) of Example 4, except that the excitation wavelength was at 370 nm and the fluorescence wavelength was at 450 nm. The result obtained in the absence of EP-1 was shown in FIG. 7, and the result of fluorescence spectrum of the solution after the completion of the reaction with EP-1 was shown in FIG. 8.
as §3

[3] = Reactivity with superoxide (KO2), fluorescence intensity; settings: 10 μM probe, 100 mM sodium phosphate buffer pH 7.4; KO2 (100 μM); 30 minutes
Description: as §1, §3

[4] = Reactivity with hydrogen peroxide, fluorescence intensity; settings: for changes in fluorescence intensity between before and after treatment, Hydrogen peroxide: 10 μM probe, 100 mM sodium phosphate buffer pH 7.4, Hydrogen peroxide (1 mM), 30 minutes; for reaction with hydrogen peroxide per se (in words): result of Example 6
Description: as §1, §3

[5] = Reactivity with nitrogen monoxide (NOC13), fluorescence intensity; settings: 10 μM probe, 100 mM sodium phosphate buffer pH 7.4; NOC13 (100 μM); 30 minutes
Description: as §1, §3

[6] = Autoxidation under a fluorescent lamp, fluorescence intensity; assay type: physicochemical; settings: for changes in fluorescence intensity between before and after treatment, Autoxidation: 10 μM probe, 100 mM sodium phosphate buffer pH 7.4, just under a fluorescent lamp for 2 hours and 30 minutes; for autoxidation (in words): condition f of Table 1
Description: as §1, §3

[7] = test system: horseradish peroxidase; assay: Specific detection of peroxidase activity (HRP/H2O2), fluorescence spectrum; assay type: biochemical; settings: 10 μM probe, horseradish peroxidase 0.2 μM, hydrogen peroxide 0 to 5.0 μM, pH 7.4; fluorescence wavelength 515 nm
Description: A 100 mM phosphate buffer (pH 7.4) of horseradish peroxidase was added to the resulting solution of ss-1F or ss-3F to a final concentration of 0.2 μM, and then hydrogen peroxide was added to final concentrations of 0, 0.01, 0.05, 0.1, 0.5, 1.0, 2.0, and 5.0 μM, and the fluorescence spectrum was immediately measured. The fluorescence spectrum was measured under the same conditions as those in 1) of Example 4, except that the fluorescence wavelength was at 515 nm.

[8] = Excitation and fluorescence spectrum of the compound itself; assay type: physicochemical
Description: as §1, §4

| SMILES | changes in fluorescence intensity between before and after treatment, Hydroxyl radical [1] | changes in fluorescence intensity with time on reaction with hydroxyl radical ([1]; 10 μM solution, hydrogen peroxide 1 mM, ferrous perchlorate 100 μM per addition (5 times)) | reactivity to hydroxyl radical (in words) [1] | changes in fluorescence intensity between before and after treatment, Singlet oxygen [2] | changes in fluorescence intensity with time on reaction with singlet oxygen ([2]; 10 μM solution, EP-1 1 mM, 2 mM, 5 mM, 37° C., ex 490 nm/em 510 nm) | changes in fluorescence intensity between before and after treatment, Superoxide [3] | changes in fluorescence intensity between before and after treatment, Hydrogen peroxide [4] | reaction with hydrogen peroxide per se (in words) [4] | changes in fluorescence intensity between before and after treatment, Nitrogen monoxide [5] | changes in fluorescence intensity between before and after treatment, Autoxidation [6] | autoxidation (in words) [6] | fluorescence intensity with HRP/H2O2 [7] | fluorescence of the compound per se ([8]; 10 μM in 100 mM sodium phosphate buffer pH 7.4, excitation 490 nm, fluorescence 510 nm) | fluorescence after reaction with singlet oxygen ([2]; after completion of the reaction with EP-1, excitation 370 nm, fluorescence 450 nm) | fluorescence of the compound itself ([8]; absence of EP-1, excitation 370 nm, fluorescence 450 nm) |
| --- | --- | --- | --- | --- | --- | --- | --- | --- | --- | --- | --- | --- | --- | --- | --- |
| Nc1ccc(Oc2ccc3c(-c4ccccc4C(=O)O)c4ccc(=O)cc-4oc3c2)cc1 [ss-3F] | 6.0 × 10^2 | increase in fluorescence intensity was observed at each time of the addition of ferrous perchlorate | high reactivity to hydroxyl radical | 8.7 | increase in fluorescence intensity was observed dependently on EP-1 concentrations as well as in time dependent manner | 5.6 | <1.0 | do not react with hydrogen peroxide | <1.0 | <1.0 | completely free from autoxidation; also recorded: no autoxidation | increase in fluorescence intensity in a concentration-dependent manner | emits no fluorescence | – | – |
| O=C(O)c1ccccc1C1c2cc(Cl)c(O)cc2Oc2cc(O)c(Cl)cc21 [DCFH, 2′,7′-dichlorodihydrofluorescein, reference compound] | 4.8 × 10^3 | – | successfully reacted with hydroxyl radical | 26 | – | 67 | 1.9 × 10^2 | – | 1.5 × 10^2 | 1.6 × 10^3 | high | – | – | – | – |
| O=C(O)c1ccccc1-c1c2ccc(=O)cc-2oc2cc(Oc3ccc(O)cc3)ccc12 [ss-1F] | 3.3 × 10^2 | – | high reactivity to hydroxyl radical | 4.8 | – | 8.3 | 1.8 | do not react with hydrogen peroxide | 6.0 | <1.0 | completely free from autoxidation; also recorded: no autoxidation | increase in fluorescence intensity in a concentration-dependent manner | – | – | – |
| Nc1ccc(Oc2ccc3ccc(=O)oc3c2)cc1 [ss-3] | – | – | – | – | – | – | – | – | – | – | – | – | – | emits fluorescence upon reaction with singlet oxygen | substantially non-fluorescent |
